Test results taken from patent US7915291B2, “Hepatitis C virus inhibitors” (Bristol-Myers Squibb Company, priority 2002, dated 2011).
Like-named read-outs stand apart in the source and are kept apart here.

Experiments:
[1] = system: HCV replicon in Huh7 cells; test: HCV replicon cell-based assay; parameters: species or system HCV strain 1B; conditions: HCV replicon, Huh7 cells, read-out: EC50 range
[2] = molecular target: HCV NS3/4A protease complex, BMS strain (UniProt P27958, C1454S/C1711G, species not given/STRAIN_BMS); test: Recombinant HCV NS3/4A protease complex FRET peptide assay (BMS strain); type: biochemical, HCV genotype 1a
How it was run: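 Recombinant BMS-strain NS3/4A (His-tagged NS4A with three-lysine tail, E. coli) at 2-3 nM preincubated 1 min with compound, then 2 μM ester-linked NS4A/NS4B-based FRET peptide added. Fluorescence followed in real time ~15 min at 25° C. Percent inhibition from slope of linear fluorescence change versus no-compound control.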

[3] = NS3/4A BMS strain; read-out: IC50 range
[4] = read-out: IC50 range; NS3/4A BMS strain

Compound	EC50 ([1]; Hepatitis C virus, Huh-7) [nM]	IC50 [2, 3] [nM]	IC50 [2, 4] [nM]	EC50 [1] [nM]
C=C[C@@H]1C[C@]1(NC(=O)[C@@H]1CC(Oc2nccc3cc(OC)ccc23)CN1C(=O)[C@@H](NC(=O)OC(C)(C)CC)C(C)(C)C)C(=O)NS(=O)(=O)C1CC1 (stereo partly shown) [Compound 67]	< 100	< 100	–	–
C=C[C@@H]1C[C@]1(NC(=O)[C@@H]1C[C@@H](Oc2nccc3cc(Cl)ccc23)CN1C(=O)[C@@H](NC(=O)OC(C)(C)C)C(C)(C)C)C(=O)NS(=O)(=O)C1CC1 [Compound 20]	100 to 1000	< 100	–	–
C=C[C@@H]1C[C@]1(NC(=O)[C@@H]1C[C@@H](Oc2ncc(C)c3ccccc23)CN1C(=O)[C@@H](NC(=O)OC(C)(C)C)C(C)(C)C)C(=O)NS(=O)(=O)C1CC1 [Compound 250]	< 100	< 100	–	–
C=CC1C[C@]1(NC(=O)[C@@H]1C[C@@H](Oc2cc(C(F)(F)F)nc3c(Cl)cccc23)CN1C(=O)[C@@H](NC(=O)OC(C)(C)C)C(C)(C)C)C(=O)NS(=O)(=O)C1CC1 (stereo partly drawn) [Compound 183, BOCNH-P3(L-tert-BuGly)-P2[(4R)-(2-trifluoromethyl, 8-chloro quinolin-4-oxo)-S-proline]-P1(1R,2S Vinyl Acca)-CONHSO2-Cyclopropane]	< 100	< 100	–	–
C=C[C@@H]1C[C@]1(NC(=O)[C@@H]1C[C@@H](Oc2nccc3c4c(ccc23)OCC4)CN1C(=O)[C@@H](NC(=O)OC(C)(C)C)C(C)(C)C)C(=O)NS(=O)(=O)C1CC1 [Compound 267]	< 100	< 100	–	–
C=C[C@@H]1C[C@]1(NC(=O)[C@@H]1C[C@@H](Oc2ccnc3cc(OC)ccc23)CN1C(=O)[C@@H](NC(=O)OC(C)(C)C)C(C)C)C(=O)NS(=O)(=O)C1CC1 [Compound 378]	< 100	< 100	–	–
C=CC1C[C@]1(NC(=O)[C@@H]1C[C@@H](Oc2nccc3occc23)CN1C(=O)[C@@H](NC(=O)OC(C)(C)C)C(C)(C)C)C(=O)NS(=O)(=O)C1CC1 (stereo partly shown) [Compound 233]	100 to 1000	100 to 1000	–	–
CC[C@@H]1C[C@]1(NC(=O)[C@@H]1C[C@@H](Oc2nccc3c(C)cccc23)CN1C(=O)[C@@H](NC(=O)OC(C)(C)C)C(C)(C)C)C(=O)NS(=O)(=O)C1CC1 [Compound 293]	100 to 1000	< 100	–	–
C=CC1C[C@]1(NC(=O)[C@@H]1C[C@@H](COc2cccc(-c3ccoc3)n2)CN1C(=O)[C@@H](NC(=O)OC)C(C)(C)C)C(=O)NS(=O)(=O)C1CC1 (stereo partly shown) [Compound 355]	10000 to 100000	100 to 1000	–	–
C=C[C@@H]1C[C@]1(NC(=O)[C@@H]1CC(Oc2nc(-c3ccccc3)cc3ccccc23)CN1C(=O)[C@@H](NC(=O)OC(C)(C)C)[C@H](C)O)C(=O)NS(=O)(=O)C1CC1 (stereo partly shown) [Compound 107]	100 to 1000	–	< 100	–
C=C[C@@H]1C[C@]1(NC(=O)[C@@H]1C[C@@H](Oc2nc(-c3ccccc3)cc3ccccc23)CN1C(=O)[C@@H](NC(=O)OC(C)(C)C)C(C)(C)C)C(=O)NS(=O)(=O)C1CC1 [Compound 25]	< 100	< 100	–	–
C=C[C@@H]1C[C@]1(NC(=O)[C@@H]1C[C@@H](Oc2nc(-c3ccc(C#N)cc3)cc3ccccc23)CN1C(=O)[C@@H](NC(=O)OC(C)(C)C)C(C)(C)C)C(=O)NS(=O)(=O)C1CC1 [Compound 29]	< 100	< 100	–	–
C=CC1C[C@]1(NC(=O)[C@@H]1C[C@@H](COc2cccc(-c3cccs3)n2)CN1C(=O)[C@@H](NC(=O)OC)C(C)(C)C)C(=O)NS(=O)(=O)C1CC1 (stereo partly shown) [Compound 356]	1000 to 10000	100 to 1000	–	–
C=C[C@@H]1C[C@]1(NC(=O)[C@@H]1C[C@@H](Oc2nccc3cc(OC)ccc23)CN1C(=O)[C@@H](NC(=O)N[C@H](C(=O)OCC)C(C)C)C(C)(C)C)C(=O)NS(=O)(=O)C1CC1 [Compound 148]	< 100	< 100	–	–
C=C[C@@H]1C[C@]1(NC(=O)[C@@H]1CC(Oc2nccc3cc(OC)ccc23)CN1C(=O)[C@@H](NC(=O)C1CCCC1)C(C)(C)C)C(=O)NS(=O)(=O)C1CC1 (stereo partly shown) [Compound 56]	< 100	< 100	–	–
C=C[C@@H]1C[C@]1(NC(=O)[C@@H]1C[C@@H](Oc2nccc3cc(OC)ccc23)CN1C(=O)[C@@H](NC(=O)NC(C)(C)C)[C@H](C)OC)C(=O)NS(=O)(=O)C1CC1 [Compound 101]	< 100	–	< 100	–
C=CC1C[C@]1(NC(=O)[C@@H]1C[C@@H](Oc2nc3ccccc3nc2O)CN1C(=O)[C@@H](NC(=O)OC(C)(C)C)C(C)(C)C)C(=O)NS(=O)(=O)C1CC1 (stereo partly drawn) [Compound 243, BOCNH-P3(L-t-BuGly)-P2[(4R)-(3-hydroxyquinoxaline-2-oxo)-S -proline]-P1(1R,2S VinylAcca)-CONHSO2Cyclopropane]	10000 to 100000	100 to 1000	–	–
C=C[C@@H]1C[C@]1(NC(=O)[C@@H]1C[C@@H](Oc2cccc(-c3ccccc3)n2)CN1C(=O)[C@@H](NC(=O)OC(C)(C)C)C(C)(C)C)C(=O)NS(=O)(=O)C1CC1 [Compound 436]	100 to 1000	< 100	–	–

Compound	EC50 ([1]; Hepatitis C virus, Huh-7) [nM]	IC50 [2, 3] [nM]	IC50 [2, 4] [nM]	EC50 [1] [nM]
C=C[C@@H]1C[C@]1(NC(=O)[C@@H]1C[C@@H](Oc2nccc3cc(OCC)ccc23)CN1C(=O)[C@@H](NC(=O)OC(C)(C)C)C(C)(C)C)C(=O)NS(=O)(=O)C1CC1 [Compound 42]	< 100	< 100	–	–
C=C[C@@H]1C[C@]1(NC(=O)[C@@H]1CC(Oc2nccc3cc(OC)ccc23)CN1C(=O)[C@H](C(C)C)N(C)C(=O)OC(C)(C)C)C(=O)NS(=O)(=O)C1CC1 (stereo partly shown) [Compound 85]	1000 to 10000	100 to 1000	–	–
C=CC1C[C@]1(NC(=O)[C@@H]1C[C@@H](Oc2ccc3nccc(Cl)c3c2)CN1C(=O)[C@@H](NC(=O)OC(C)(C)C)C(C)(C)C)C(=O)NS(=O)(=O)C1CC1 (stereo partly drawn) [Compound 240, BOCNH-P3(L-t-BuGly)-P2[(4R)-(4-chloroquinoline-6-oxo)-S -proline]-P1(1R,2S VinylAcca)-CONHSO2Cyclopropane]	< 100	< 100	–	–
C=C[C@@H]1C[C@]1(NC(=O)[C@@H]1C[C@@H](Oc2nccc3c(OC(F)(F)F)cccc23)CN1C(=O)[C@@H](NC(=O)OC(C)(C)C)C(C)(C)C)C(=O)NS(=O)(=O)C1CC1 [Compound 269]	100 to 1000	< 100	–	–
C=C[C@@H]1C[C@]1(NC(=O)[C@@H]1C[C@@H](Oc2nc(-c3ccco3)c(OC)c3ccccc23)CN1C(=O)[C@@H](NC(=O)OC(C)(C)C)C(C)(C)C)C(=O)NS(=O)(=O)C1CC1 [Compound 230, BOCNH-P3(L-t-BuGly)-P2[(4R)-(3-furan-2-yl-4-methoxy -isoquinolin-1-oxo)-S-proline]-P1(1R,2S VinylAcca)-CONHSO2Cyclopropane]	–	100 to 1000	–	100 to 1000
C=C[C@@H]1C[C@]1(NC(=O)[C@@H]1C[C@@H](Oc2cccc(-c3ccoc3)n2)CN1C(=O)[C@@H](NC(=O)OC(C)(C)C)C(C)(C)C)C(=O)NS(=O)(=O)C1CC1 [Compound 435]	100 to 1000	< 100	–	–
C=C[C@@H]1C[C@]1(NC(=O)[C@@H]1C[C@@H](Oc2cncc(-c3nccs3)c2)CN1C(=O)[C@@H](NC(=O)OC(C)(C)C)C(C)(C)C)C(=O)NS(=O)(=O)C1CC1 [Compound 432]	100 to 1000	< 100	–	–
C=C[C@@H]1C[C@]1(NC(=O)[C@@H]1C[C@@H](Oc2cc(-c3ccccc3)nc3nc(C)ccc23)CN1C(=O)[C@@H](NC(=O)OC(C)(C)C)C(C)(C)C)C(=O)NS(=O)(=O)C1CC1 [Compound 2]	100 to 1000	< 100	–	–
C=C[C@@H]1C[C@]1(NC(=O)[C@@H]1C[C@@H](Oc2cc(-c3ccccc3)ncn2)CN1C(=O)[C@@H](NC(=O)OC(C)(C)C)C(C)(C)C)C(=O)NS(=O)(=O)C1CC1 [Compound 411]	100 to 1000	< 100	–	–
C=CC1C[C@]1(NC(=O)[C@@H]1C[C@@H](Oc2nccc(-c3ccco3)n2)CN1C(=O)[C@@H](NC(=O)CC1CC1)C(C)(C)C)C(=O)NS(=O)(=O)C1CC1 (stereo partly shown) [Compound 339]	1000 to 10000	< 100	–	–
C=CC1C[C@]1(NC(=O)[C@@H]1C[C@@H](Oc2nccc3cc(C(C)C)ccc23)CN1C(=O)[C@@H](NC(=O)OC(C)(C)C)C(C)(C)C)C(=O)NS(=O)(=O)C1CC1 (stereo partly drawn) [Compound 190, BOCNH-P3(L-tert-BuGly)-P2[(4R)-(6-isopropyl isoquinolin-1-oxo)-S-proline]-P1(1R,2S Vinyl Acca)-CONHSO2-Cyclopropane]	100 to 1000	< 100	–	–
C=C[C@@H]1C[C@]1(NC(=O)[C@@H]1C[C@@H](Oc2nccc3cc(OC)ccc23)CN1C(=O)[C@@H](NC(=O)N[C@H](C(=O)OCc1ccccc1)C(C)C)C(C)(C)C)C(=O)NS(=O)(=O)C1CC1 [Compound 150]	< 100	< 100	–	–
C=C[C@@H]1C[C@]1(NC(=O)[C@@H]1C[C@@H](Oc2nccc3c(N4CCOCC4)cccc23)CN1C(=O)[C@@H](NC(=O)OC(C)(C)C)C(C)(C)C)C(=O)NS(=O)(=O)C1CC1 [Compound 271]	100 to 1000	< 100	–	–
C=C[C@@H]1C[C@]1(NC(=O)[C@@H]1C[C@@H](Oc2nccc3cc(OC)ccc23)CN1C(=O)[C@@H](NC(=O)OC(C)(C)C)c1ccccc1)C(=O)NS(=O)(=O)C1CC1 [Compound 134]	100 to 1000	< 100	–	–
C=C[C@@H]1C[C@]1(NC(=O)[C@@H]1C[C@@H](Oc2nccc3ccccc23)CN1C(=O)[C@@H](NC(=O)CC(C)(C)C)C(C)(C)C)C(=O)NS(=O)(=O)C1CC1 [Compound 130]	100 to 1000	< 100	–	–
C=C[C@@H]1C[C@]1(NC(=O)[C@@H]1CC(Oc2nccc3cc(OC)ccc23)CN1C(=O)[C@@H](NC(=O)N(CC)CC)C(C)(C)C)C(=O)NS(=O)(=O)C1CC1 (stereo partly shown) [Compound 79]	100 to 1000	< 100	–	–
C=C[C@@H]1C[C@]1(NC(=O)[C@@H]1C[C@@H](Oc2cc(-c3ccccn3)nc3cc(OC)ccc23)CN1C(=O)[C@@H](NC(=O)OC(C)(C)C)C(C)(C)C)C(=O)NS(=O)(=O)C1CC1 [Compound 379]	< 100	< 100	–	–
